Results reported in PMC8779240 (Bioorganic & medicinal chemistry letters, 2021).

Assays:
[1] = system: Escherichia coli; assay: MIC against E. coli; format: cell-based
[2] = system: S. aureus ParC^S80F GyrA^S84L; format: cell-based, Staphylococcus aureus; conditions: ParC^S80F/GyrA^S84L strain

Row | Compound | potency compared with fluoroquinolone parent, MIC data in units of μM [2] | also measured
1 | CC(=O)O[C@H]1[C@H](C)[C@H](O)[C@H](C)[C@@H](O)[C@@H](C(C)OC(=O)C(C)(C)CC(=O)O)/C=C/C=C(/C)C(=O)NC2=CC(=O)c3c(c(O)c(C)c4c3C(=O)[C@@](C)(O/C=C/[C@H](O[C@H]3C[C@@H]5OCO[C@@H]5[C@@H](C)O3)[C@H]1C)O4)C2=O (stereo partly shown) [Compound 1, kanglemycin A] | – | Gram-negative activity against E. coli [1]: did not show Gram-negative activity
2 | CC(=O)O[C@H]1[C@H](C)[C@H](O)[C@H](C)[C@@H](O)[C@@H](C(C)OC(=O)C(C)(C)CC(=O)O)/C=C/C=C(/C)C(=O)Nc2c3oc4cc(N5Cc6cc(-c7ccc8c(=O)c(C(=O)O)cn(C9CC9)c8c7OC(F)F)ccc6[C@H]5C)cc(O)c4nc-3c3c4c(c(C)c(O)c3c2=O)O[C@](C)(O/C=C/[C@H](O[C@H]2C[C@@H]3OCO[C@@H]3[C@@H](C)O2)[C@H]1C)C4=O (stereo partly shown) [Compound 5c] | surpassed the potency of their fluoroquinolone parents | –
3 | COc1c(N2C[C@@H]3CCCN(c4cc(O)c5nc6c7c8c9c(C)c(O)c7c(=O)c(c-6oc5c4)NC(=O)/C(C)=C\C=C\[C@H](C(C)OC(=O)C(C)(C)CC(=O)O)[C@H](O)[C@@H](C)[C@@H](O)[C@@H](C)[C@H](OC(C)=O)[C@H](C)[C@@H](O[C@H]4C[C@@H]5OCO[C@@H]5[C@@H](C)O4)/C=C/O[C@@](C)(O9)C8=O)[C@@H]3C2)c(F)cc2c(=O)c(C(=O)O)cn(C3CC3)c12 (stereo partly shown) [Compound 5e] | surpassed the potency of their fluoroquinolone parents | –
4 | COc1c(N2C[C@@H]3CCCN(CCCNc4cc(O)c5nc6c7c8c9c(C)c(O)c7c(=O)c(c-6oc5c4)NC(=O)/C(C)=C\C=C\[C@H](C(C)OC(=O)C(C)(C)CC(=O)O)[C@H](O)[C@@H](C)[C@@H](O)[C@@H](C)[C@H](OC(C)=O)[C@H](C)[C@@H](O[C@H]4C[C@@H]5OCO[C@@H]5[C@@H](C)O4)/C=C/O[C@@](C)(O9)C8=O)[C@@H]3C2)c(F)cc2c(=O)c(C(=O)O)cn(C3CC3)c12 (stereo partly shown) [Compound 6e] | surpassed the potency of their fluoroquinolone parents | –
5 | CC(=O)O[C@H]1[C@H](C)[C@H](O)[C@H](C)[C@@H](O)[C@@H](C(C)OC(=O)C(C)(C)CC(=O)O)/C=C/C=C(/C)C(=O)Nc2c3oc4cc(NC5(c6c(F)cc7c(=O)c(C(=O)O)cn8c7c6OC[C@@H]8C)CC5)cc(O)c4nc-3c3c4c(c(C)c(O)c3c2=O)O[C@](C)(O/C=C/[C@H](O[C@H]2C[C@@H]3OCO[C@@H]3[C@@H](C)O2)[C@H]1C)C4=O (stereo partly shown) [Compound 5b] | surpassed the potency of their fluoroquinolone parents | –
6 | CC(=O)O[C@H]1[C@H](C)[C@H](O)[C@H](C)[C@@H](O)[C@@H](C(C)OC(=O)C(C)(C)CC(=O)O)/C=C/C=C(/C)C(=O)Nc2c3oc4cc(N5CCN(c6cc7c(cc6F)c(=O)c(C(=O)O)cn7C6CC6)CC5)cc(O)c4nc-3c3c4c(c(C)c(O)c3c2=O)O[C@](C)(O/C=C/[C@H](O[C@H]2C[C@@H]3OCO[C@@H]3[C@@H](C)O2)[C@H]1C)C4=O (stereo partly shown) [Compound 5a] | – | fold improvement in MIC compared to ciprofloxacin in units of μM ([2]; MIC in μM): ~ 277 fold; fold improvement in activity compared to ciprofloxacin ([2]; MIC in μg/mL): 64 fold
